# Biological target: T1, human M4 receptor (Homo sapiens, UniProt P08173)
# T1 construct: expressed in transfected cells; host or cells: CHO cells
# T1 sequence (P08173 1-479): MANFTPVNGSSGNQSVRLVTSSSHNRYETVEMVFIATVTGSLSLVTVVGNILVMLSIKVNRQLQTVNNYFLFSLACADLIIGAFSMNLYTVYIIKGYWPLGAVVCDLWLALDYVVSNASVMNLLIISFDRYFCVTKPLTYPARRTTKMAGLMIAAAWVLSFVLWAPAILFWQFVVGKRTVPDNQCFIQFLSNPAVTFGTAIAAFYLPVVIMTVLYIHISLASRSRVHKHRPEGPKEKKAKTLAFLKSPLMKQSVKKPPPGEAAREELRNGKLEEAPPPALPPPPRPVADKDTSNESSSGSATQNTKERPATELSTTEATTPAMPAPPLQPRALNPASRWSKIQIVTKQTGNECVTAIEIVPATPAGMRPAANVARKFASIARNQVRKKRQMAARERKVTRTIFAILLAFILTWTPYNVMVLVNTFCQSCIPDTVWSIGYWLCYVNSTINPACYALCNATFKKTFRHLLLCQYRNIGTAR
# Experiment: Radioligand ([3H]N-methylscopolamine) binding assay, membranes from CHO cells expressing human M4 receptor
# Conditions: Ki against human M4 receptor; membranes from CHO cells; tritiated N-methylscopolamine 1.5 nM; read-out: K
# Summary of the method: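 Ki values derive from displacement of tritiated N-methylscopolamine (1.5 nM) from human M4 receptor in CHO membranes. Membranes, radioligand and twelve-point compound series were incubated together at 37 °C for 90 minutes in pH 7.4 HEPES/NaCl/MgCl2/EDTA buffer. Rapid vacuum filtration over polyethylenimine-pretreated filters was followed by radioactivity counting.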
row,SMILES,Ki [µM]
1,"C[C@@H]1CN(c2ncc(C#N)cn2)C[C@H](C)N1C(=O)NC1CC2(C1)CN(Cc1ccc(F)cc1)C2 [Compound 330, (2R,6S)-4-(5-cyanopyrimidin-2-yl)-N-{2-[(4-fluorophenyl)methyl]-2-azaspiro[3.3]heptan-6-yl}-2,6-dimethylpiperazine-1-carboxamide]",0.1 to 1
2,"COc1cc(N2C[C@@H](C)N(C(=O)OC3CC4(C3)CN(Cc3ccccc3)C4)[C@@H](C)C2)ccc1C#N [Compound 526, 2-benzyl-2-azaspiro[3.3]heptan-6-yl (2R,6S)-4-(4-cyano-3-methoxyphenyl)-2,6-dimethylpiperazine-1-carboxylate]",0.1 to 1
3,"C[C@@H]1CN(c2cnc(C(F)(F)F)cn2)C[C@@H](C)N1C(=O)NCC1CC2(C1)CN(Cc1ccccc1)C2 [Compound 63, (2R,6R)-N-({2-benzyl-2-azaspiro[3.3]heptan-6-yl}methyl)-2,6-dimethyl-4-[5-(trifluoromethyl)pyrazin-2-yl]piperazine-1-carboxamide]",0.1 to 1
4,"C[C@@H]1CN(c2nc3ccc(C#N)cc3s2)[C@@H](C)CN1C(=O)OC1CC2(C1)CN(Cc1ccccc1)C2 [Compound 435, 2-benzyl-2-azaspiro[3.3]heptan-6-yl (2R,5S)-4-(6-cyano-1,3-benzothiazol-2-yl)-2,5-dimethylpiperazine-1-carboxylate]",0.1 to 1
5,"C[C@H]1CN(C(=O)NC2CC3(C2)CN(Cc2ccccc2)C3)CCN1c1ncc(C(F)(F)F)cn1 [Compound 6, (3S)-N-{2-benzyl-2-azaspiro[3.3]heptan-6-yl}-3-methyl-4-[5-(trifluoromethyl)pyrimidin-2-yl]piperazine-1-carboxamide]",0.01 to 0.1
6,C[C@@H]1CN(c2ncc(C#N)cn2)C[C@H](C)N1C(=O)NC1CC2(C1)CN(Cc1ccccc1)C2 [Compound 66],0.1 to 1
7,"C[C@@H]1CN(c2ncc(C(F)F)cn2)C[C@H](C)N1C(=O)OC1CC2(C1)CN(Cc1ccccc1)C2 [Compound 464, 2-benzyl-2-azaspiro[3.3]heptan-6-yl (2R,6S)-4-[5-(difluoromethyl)pyrimidin-2-yl]-2,6-dimethylpiperazine-1-carboxylate]",0.01 to 0.1
8,"COc1ccc(CN2CC3(CC(NC(=O)N4[C@H](C)CN(c5ncc(C(F)(F)F)cn5)C[C@@H]4C)C3)C2)cn1 [Compound 305, (2R,6S)-N-{2-[(6-methoxypyridin-3-yl)methyl]-2-azaspiro[3.3]heptan-6-yl}-2,6-dimethyl-4-[5-(trifluoromethyl)pyrimidin-2-yl]piperazine-1-carboxamide]",0.01 to 0.1
9,"C[C@@H]1CN(c2nc3ccc(F)cc3o2)C[C@@H](C)N1C(=O)OC1CC2(C1)CN(Cc1ccccc1)C2 [Compound 445, 2-benzyl-2-azaspiro[3.3]heptan-6-yl (2R,6R)-4-(6-fluoro-1,3-benzoxazol-2-yl)-2,6-dimethylpiperazine-1-carboxylate]",0.01 to 0.1
10,"O=C(OC1CC2(C1)CN(Cc1ccccc1)C2)N1CCN(c2cc(F)c(F)c(F)c2)CC1 [Compound 105, 2-benzyl-2-azaspiro[3.3]heptan-6-yl 4-(3,4,5-trifluorophenyl)piperazine-1-carboxylate]",0.1 to 1
11,"CNC(=O)c1cnc(N2C[C@@H](C)N(C(=O)OC3CC4(C3)CN(Cc3ccccc3)C4)[C@@H](C)C2)nc1 [Compound 471, 2-benzyl-2-azaspiro[3.3]heptan-6-yl (2R,6S)-2,6-dimethyl-4-[5-(methylcarbamoyl)pyrimidin-2-yl]piperazine-1-carboxylate]",0.1 to 1
12,"C[C@@H]1CN(c2cnc(C(F)(F)F)cn2)C[C@@H](C)N1C(=O)OC1CC2(C1)CN(Cc1ccccc1)C2 [Compound 142, 2-benzyl-2-azaspiro[3.3]heptan-6-yl (2R,6R)-2,6-dimethyl-4-[5-(trifluoromethyl)pyrazin-2-yl]piperazine-1-carboxylate]",0.01 to 0.1
13,"C[C@H]1CN(C(=O)OC2CC3(C2)CN(Cc2ccccc2)C3)CCN1c1ncc(C#N)cn1 [Compound 119, 2-benzyl-2-azaspiro[3.3]heptan-6-yl (3S)-4-(5-cyanopyrimidin-2-yl)-3-methylpiperazine-1-carboxylate]",0.1 to 1
14,"C[C@@H]1CN(c2ncc(C#N)cn2)C[C@H](C)N1C(=O)OC1CC2(C1)CN(Cc1ccccc1)C2 [Compound 130, 2-Benzyl-2-azaspiro[3.3]heptan-6-yl (2R,6S)-4-(5-cyanopyrimidin-2-yl)-2,6-dimethylpiperazine-1-carboxylate]",0.01 to 0.1
15,"C[C@@H]1CN(c2ncccc2C(F)(F)F)C[C@@H](C)N1C(=O)OC1CC2(C1)CN(Cc1ccccc1)C2 [Compound 190, 2-benzyl-2-azaspiro[3.3]heptan-6-yl (2R,6R)-2,6-dimethyl-4-[3-(trifluoromethyl)pyridin-2-yl)piperazine-1-carboxylate]",0.1 to 1

# Results, then the compound that gave them:
row,Ki [µM],SMILES
1,0.01 to 0.1,"C[C@@H]1CN(c2ncc(C#N)cn2)C[C@H](C)N1C(=O)NC1CC2(C1)CN(Cc1ccc(Cl)cc1)C2 [Compound 251, (2R,6S)-N-{2-[(4-chlorophenyl)methyl]-2-azaspiro[3.3]heptan-6-yl}-4-(5-cyanopyrimidin-2-yl)-2,6-dimethylpiperazine-1-carboxamide]"
2,< 0.01,"C[C@@H]1CN(c2ncc(OCC3CC3)cn2)C[C@H](C)N1C(=O)OC1CC2(C1)CN(Cc1ccccc1)C2 [Compound 499, 2-benzyl-2-azaspiro[3.3]heptan-6-yl (2R,6S)-4-[5-(cyclopropylmethoxy)pyrimidin-2-yl]-2,6-dimethylpiperazine-1-carboxylate]"
3,< 0.01,"C[C@@H]1CN(c2ncc(C(F)(F)F)c(N)n2)C[C@H](C)N1C(=O)OC1CC2(C1)CN(Cc1ccc(F)cc1)C2 [Compound 466, 2-[(4-fluorophenyl)methyl]-2-azaspiro[3.3]heptan-6-yl (2R,6S)-4-[4-amino-5 (trifluoromethyl)pyrimidin-2-yl]-2,6-dimethylpiperazine-1-carboxylate]"
4,< 0.01,"C[C@@H]1CN(c2nc3cc(F)ccc3s2)C[C@H](C)N1C(=O)OC1CC2(C1)CN(Cc1ccccc1)C2 [Compound 438, 2-benzyl-2-azaspiro[3.3]heptan-6-yl (2R,6S)-4-(5-fluoro-1,3-benzothiazol-2-yl)-2,6-dimethylpiperazine-1-carboxylate]"
5,< 0.01,"C[C@@H]1CN(c2ncc(C3CC3)cn2)C[C@H](C)N1C(=O)OC1CC2(C1)CN(Cc1ccccc1)C2 [Compound 506, 2-benzyl-2-azaspiro[3.3]heptan-6-yl (2R,6S)-4-(5-cyclopropylpyrimidin-2-yl)-2,6-dimethylpiperazine-1-carboxylate]"
6,< 0.01,"C[C@@H]1CN(c2ccc(C(F)(F)F)cc2)C[C@@H](C)N1C(=O)NC1CC2(C1)CN(Cc1ccccc1)C2 [Compound 51, (2R,6R)-N-{2-benzyl-2-azaspiro[3.3]heptan-6-yl}-2,6-dimethyl-4-[4-(trifluoromethyl)phenyl]pipera-zine-1-carboxamide]"
7,< 0.01,"C[C@@H]1CN(c2nc3ccc(C(F)(F)F)cc3s2)[C@@H](C)CN1C(=O)OC1CC2(C1)CN(Cc1ccccc1)C2 [Compound 372, 2-benzyl-2-azaspiro[3.3]heptan-6-yl (2R,5S)-2,5-dimethyl-4-[6-(trifluoromethyl)-1,3-benzothiazol-2-yl]piperazine-1-carboxylate]"
8,< 0.01,"C[C@@H]1CN(c2ccc(OC(F)(F)F)c(C#N)c2)CCN1C(=O)NC1CC2(C1)CN(Cc1ccccc1)C2 [Compound 13, (2R)-N-{2-benzyl-2-azaspiro[3.3]heptan-6-yl}-4-[3-cyano-4-(trifluoromethoxy)phenyl]-2-methylpiperazine-1-carboxamide]"

# Source: patent US20230129359A1, “MUSCARINIC RECEPTOR 4 ANTAGONISTS AND METHODS OF USE” (Neurocrine Biosciences, Inc., priority 2020, published 2023)
